The target of the assay is T1, aromatase (cytochrome P450 aromatase) (Homo sapiens, UniProt P11511).
T1 construct: Human placentas were used; from tissue; host or cells: human placenta, microsomes (105,000 g pellet)
T1 sequence (P11511 1-503): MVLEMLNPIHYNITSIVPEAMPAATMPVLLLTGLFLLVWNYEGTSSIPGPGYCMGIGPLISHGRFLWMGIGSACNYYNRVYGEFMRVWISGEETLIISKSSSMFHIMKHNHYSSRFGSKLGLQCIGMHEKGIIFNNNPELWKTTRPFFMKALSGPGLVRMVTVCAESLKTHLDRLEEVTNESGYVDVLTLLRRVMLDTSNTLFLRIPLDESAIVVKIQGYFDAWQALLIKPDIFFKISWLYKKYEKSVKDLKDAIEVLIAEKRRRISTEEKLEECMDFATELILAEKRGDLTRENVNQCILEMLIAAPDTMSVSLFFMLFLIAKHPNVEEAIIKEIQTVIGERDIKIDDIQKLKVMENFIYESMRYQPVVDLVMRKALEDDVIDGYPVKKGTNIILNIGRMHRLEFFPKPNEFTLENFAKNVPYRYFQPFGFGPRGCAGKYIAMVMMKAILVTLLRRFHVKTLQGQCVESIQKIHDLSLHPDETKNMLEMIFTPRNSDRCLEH
Description: Aromatase inhibition in human placental microsomes (tritiated water release from 1-2-(^3H)-androstenedione). Type of assay: biochemical. Conditions: 25 micrograms protein per test, 60 nM androstene-dione substrate, NADPH, pH 7.2, 37° C., 10 minutes, read-out: IC50 (concentration of inhibitor necessary to decrease by 50% the enzymatic activity). As for the experimental part: Inhibition dependent on the concentration (measurement of the IC50 =concentration of the inhibitor necessary to reduce the enzymatic activity by 50%). Human placentas were used which one hour or more after birth were washed, perfused with physiological serum (5 liters) via the umbilical vein and then frozen at -40° C.
The placentas were thawed at 4° C., then homogenized (1:3) in a 10 mM phosphate buffer, pH=7.0, containing 100 mM of potassium chloride (KCl), 10 mM of dithiothreitol (DTT), 10 mM of ethylenediaminetetra-aceticacid (EDTA), 40 mM of nicotinamide and 250 mM of sucrose. The homogenates were then subjected to various stages of centrifugation until the "9000 g" supernatant was obtained (corresponding to cytosol and to endoplasmic reticulum). This supernatant was then subjected to an ultracentrifugation stage (90 minutes, 105,000 g) to obtain the microsome deposit. […] The protein concentration of the microsome suspension was determined by the BRADFORD method (BRADFORD, Anal. Biochem., Vol. 72 (1976), p. 248). […]
The enzymatic reaction was then very quickly started by the addition of 10 microliters of reduced nicotinamide adenine dinucleotide phosphate (NADPH) dissolved in water. […] After centrifugation, and for each tube, 100 microliters of supernatant was removed and counted in the presence of scintillating liquid. […]

The structures appear in SMILES notation. pIC50: −log10 of the molar value.

As to `C[C@]12CCC(=O)C(SCF)=C1CC[C@@H]1[C@@H]2CC[C@]2(C)C(=O)CC[C@@H]12` [Example 1, 4-fluoromethylthio-Δ^4-androstene-3,17-dione], the pIC50 was 7.15.

As for `C[C@]12CCC(=O)C(SCCl)=C1CC[C@@H]1[C@@H]2CC[C@]2(C)C(=O)CC[C@@H]12` [Example 2, 4-Chloromethylthio-Δ^4-androstene-3,17-dione], the pIC50 was 7.12.

For the origin of these results see patent US4988684A, “Novel 4-alkylthio-steroids” (Roussel Uclaf, priority 1988, dated 1991).
